Values quoted from earlier work, collected in patent US20230165895A1, “COMPOSITIONS AND METHODS FOR EYE HEAL TH COMPRISING AREDS AND VITAMIN B COMPLEX” (BAUSCH + LOMB IRELAND LIMITED, priority 2020, published 2023).

Settings: no test, species or source described; stated next to the RDA

Cc1c(C)c2c(c(C)c1O)CC[C@@](C)(CCC[C@H](C)CCC[C@H](C)CCCC(C)C)O2 [vitamin E, alpha tocopherol]
levels at which no adverse effects have been observed: ≤ 800.0 mg
